Assay: Initial toxicity assessment in mice by median weight loss after injection
Conditions: monitored after each injection (1st, 2nd and 3rd booster dose); s.c., saponin 20 μg/mouse with OVA 10 μg/mouse; FIG. 1
Procedure: Groups of five mice (C57BL/6, female, 6-8 weeks old) were vaccinated subcutaneously three times […] (days 0, 14, and 28) with endotoxin-free OVA (EndoFit™ Ovalbumin, Invitrogen) (10 μg/mouse) in phosphate-buffered saline (PBS, 100 μL) either alone (no-adjuvant control group) or with the synthetic saponins (20 μg/mouse). To analyze the antibody responses over time, mice were bled via the submandibular vein at the indicated pre- (day −1) and post-vaccination timepoint (day 21), and by cardiac puncture at the experimental endpoint (day 35). Blood was collected in BD Microtainer® tubes (Clot Activator/SST™ Gel) and centrifuged at 7500 g for 10 min, after which serum was harvested and stored at −20° C. until further analysis.
As a standard initial overall assessment of the potential toxicity of the saponins, in addition to visual inspection for potential signs of discomfort, the weight loss of each group of mice was monitored before and after each immunization. The median percentage weight change at different timepoints post-injection was determined and analyzed.
Mouse weight loss was monitored after each injection (1st, 2nd and 3rd (booster dose)).

SMILES: CC1OC(OC2C(OC(=O)C34CCC(C)(C)CC3C3=CCC5C6(C)CCC(OC7OC(C(=O)O)C(O)C(OC8OCC(O)C(O)C8O)C7OC7OC(CO)C(O)C(O)C7O)C(C)(C=O)C6CCC5(C)C3(C)CC4O)OC(CO)C(NC(=O)CCCCCNC(=O)c3ccc(C(=O)c4ccc(C(=O)NCCOCCOCCOCCOCCOCCNC(=O)CCCCC5SCC6NC(=O)NC65)cc4)cc3)C2O)C(O)C(O)C1OC1OCC(O)C(O)C1O (stereo not shown) [BTS-25-BP]
- Mouse weight loss (toxicity): about 2%

Reference: patent publication US20260285898A1, “SAPONIN DERIVATIVES AS ADJUVANTS AND PHOTOAFFINITY PROBES” (ASOCIACIÓN CENTRO DE INVESTIGACIÓN COOPERATIVE EN …, priority 2023, published 2026)
